# Molecular target: T1, GPR39 receptors on m39-20 cell lines (Mus musculus, UniProt Q5U431, T447P)
# T1 construct: P2A-mCherry (C); expressed in transfected cells
# T1 sequence (Q5U431 1-456 T447P): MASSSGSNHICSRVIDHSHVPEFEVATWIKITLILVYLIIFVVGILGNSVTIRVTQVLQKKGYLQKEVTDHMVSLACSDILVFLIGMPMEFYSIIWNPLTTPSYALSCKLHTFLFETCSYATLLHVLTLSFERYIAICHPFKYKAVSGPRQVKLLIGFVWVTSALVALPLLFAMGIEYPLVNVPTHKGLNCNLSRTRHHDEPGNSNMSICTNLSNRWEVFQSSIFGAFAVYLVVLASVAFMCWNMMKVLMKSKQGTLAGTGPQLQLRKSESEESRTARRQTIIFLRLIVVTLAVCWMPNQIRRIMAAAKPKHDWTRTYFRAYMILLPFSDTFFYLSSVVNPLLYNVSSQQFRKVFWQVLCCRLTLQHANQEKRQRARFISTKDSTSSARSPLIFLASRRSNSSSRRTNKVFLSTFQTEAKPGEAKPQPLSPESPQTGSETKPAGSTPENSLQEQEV
# Experiment: FLIPR calcium imaging on m39-20 cell lines stably expressing murine-derived GPR39
# Format: cell-based
# Conditions: Bile acid + 4 μM zinc ions EC50, m39-20 cells, 4 μM zinc ions
# Text: Intracellular calcium imaging is a routine technique to study cell functions, the basic principle of which is to detect the concentration of the calcium ion in tissues or cells using a calcium indicator, thereby reflecting certain reactions in the tissues or cells. In the present application, the intracellular calcium released from a cell line that stably or transiently expresses GPR39 is detected using Fluo8-AM, a calcium fluorescent indicator, so as to determine the activation of the GPR39 receptor by the bile acid and derivative thereof.
# HEK293T cells (purchased from ATCC) were seeded in a 6-well plate (coming Co.) at an appropriate density (about 0.5-2×10^5/well). When the cell density reached above 30%, the plasmid PLVXK-mGPR39-P2A-mCherry was transfected with Lipofectamine 3000 (Invitrogen) at a concentration of 2 μg per well. The cells were passaged 24 hours after transfection, the puromycin (gibco) was added into the medium at a concentration of 2 μg/mL for antibiotic screening of cells. After 2-4 days of continuous screening, the cells screened for puromycin resistance were trypsinized and screened by flow cytometry for monoclones with red fluorescence. And these monoclones were seeded in a 96-well plate and cultured in a medium without puromycin for around 10 days. Cell colonies with red fluorescence were sorted under a fluorescence microscope, trypsinized and then passaged and expanded in a 6-well plate. Cell lines m39-20 stably expressing murine-derived GPR39 were obtained through the above methods.
# Calcium dye Fluo8-AM (ATT bioquest Co.) was dissolved in DMSO solvent to formulate a stock solution of 1 μg/μL. […] After then, the calcium dye working solution was replaced with the 4K solution (50 μL per well), and acclimated for 5 min at room temperature for the subsequent calcium imaging experiment.
# Bile acids and derivatives thereof as listed in Table 1 below were dissolved in dimethyl sulfoxide (DMSO, Sigma Co.) solvent to formulate a stock solution of 50 mM, which was stored at −20° C. During calcium imaging with FLIPR, the drug was diluted with the above 4K solution into a working concentration of 400 μM, and packaged into another 96-well plate. […] The instrument parameters were set so that 50 μL of the drug solution may be added into the culture wells within 2 s. The fluorescence recording result within the first 30 seconds was used as the baseline value. The FLIPR robot arm was programmed to automatically add bile acids and derivatives thereof into the cell sample culture wells at the 31st second. 1% of DMSO solvent was used as the blank control.
# After that, the calcium dye working solution was replaced with a 4K solution containing 4 μM zinc ions (50 μL per well), followed by acclimation for 5 min at room temperature.
row,Structure (SMILES),EC50
1,C[C@H](CCC(=O)O)[C@H]1CC[C@H]2[C@@H]3[C@@H](O)C[C@@H]4C[C@H](OS(=O)(=O)O)CC[C@]4(C)[C@H]3CC[C@]12C [UDCAS],68.6 ± 16.3 µM
2,C[C@H](CCC(=O)NCC(=O)O)[C@H]1CC[C@H]2[C@@H]3[C@H](O)C[C@@H]4C[C@H](O)CC[C@]4(C)[C@H]3CC[C@]12C [GCDCA],80.6 ± 3.6 µM
3,"C[C@H](CCC(=O)O)[C@H]1CC[C@H]2[C@@H]3CC[C@@H]4C[C@H](O)CC[C@]4(C)[C@H]3CC[C@]12C [LCA, Lithocholic acid]",> 100 µM
4,C[C@H](CCC(=O)NCCS(=O)(=O)O)[C@H]1CC[C@H]2[C@@H]3CC[C@@H]4C[C@H](OS(=O)(=O)O)CC[C@]4(C)[C@H]3C[C@H](O)[C@]12C [TDCAS],> 100 µM
5,C[C@H](CCC(=O)NCC(=O)O)[C@H]1CC[C@H]2[C@@H]3[C@@H](O)C[C@@H]4C[C@H](O)CC[C@]4(C)[C@H]3CC[C@]12C [GUDCA],> 100 µM
6,C[C@H](CCC(=O)NCCS(=O)(=O)O)[C@H]1CC[C@H]2[C@@H]3[C@@H](O)C[C@@H]4C[C@H](OS(=O)(=O)O)CC[C@]4(C)[C@H]3CC[C@]12C [TUDCAS],> 100 µM

# Same assay, conditions: EC50 Agonist + 4 μM zinc ions, m39-20 cells, 4 μM zinc ions
row,Structure (SMILES),EC50
1,"CNc1nc(NCc2ccc(NS(C)(=O)=O)cc2Cl)cc(-c2ccccn2)n1 [TG-G 1008, reference compound]",1.5 µM

# Same assay, conditions: FIG. 1
row,Structure (SMILES),intracellular calcium signals in m39-20 cell lines
1,C[C@H](CCC(=O)O)[C@H]1CC[C@H]2[C@@H]3[C@@H](O)C[C@@H]4C[C@H](OS(=O)(=O)O)CC[C@]4(C)[C@H]3CC[C@]12C [UDCAS],varying extents of intracellular calcium signals
2,C[C@H](CCC(=O)NCC(=O)O)[C@H]1CC[C@H]2[C@@H]3[C@H](O)C[C@@H]4C[C@H](O)CC[C@]4(C)[C@H]3CC[C@]12C [GCDCA],varying extents of intracellular calcium signals
3,C[C@H](CCC(=O)NCCS(=O)(=O)O)[C@H]1CC[C@H]2[C@@H]3CC[C@@H]4C[C@H](OS(=O)(=O)O)CC[C@]4(C)[C@H]3C[C@H](O)[C@]12C [TDCAS],varying extents of intracellular calcium signals
4,C[C@H](CCC(=O)NCC(=O)O)[C@H]1CC[C@H]2[C@@H]3[C@@H](O)C[C@@H]4C[C@H](O)CC[C@]4(C)[C@H]3CC[C@]12C [GUDCA],varying extents of intracellular calcium signals
5,C[C@H](CCC(=O)NCCS(=O)(=O)O)[C@H]1CC[C@H]2[C@@H]3[C@@H](O)C[C@@H]4C[C@H](OS(=O)(=O)O)CC[C@]4(C)[C@H]3CC[C@]12C [TUDCAS],varying extents of intracellular calcium signals

# Same assay, conditions: activation efficacy, m39-20 cells, 4 μM zinc ions
row,Structure (SMILES),Bile acid + 4 μM zinc ions Efficacy
1,C[C@H](CCC(=O)O)[C@H]1CC[C@H]2[C@@H]3[C@@H](O)C[C@@H]4C[C@H](OS(=O)(=O)O)CC[C@]4(C)[C@H]3CC[C@]12C [UDCAS],84.7 ± 2.4%
2,C[C@H](CCC(=O)NCC(=O)O)[C@H]1CC[C@H]2[C@@H]3[C@H](O)C[C@@H]4C[C@H](O)CC[C@]4(C)[C@H]3CC[C@]12C [GCDCA],91.2 ± 4.4%
3,"C[C@H](CCC(=O)O)[C@H]1CC[C@H]2[C@@H]3CC[C@@H]4C[C@H](O)CC[C@]4(C)[C@H]3CC[C@]12C [LCA, Lithocholic acid]",1.3 ± 1.1%
4,C[C@H](CCC(=O)NCCS(=O)(=O)O)[C@H]1CC[C@H]2[C@@H]3CC[C@@H]4C[C@H](OS(=O)(=O)O)CC[C@]4(C)[C@H]3C[C@H](O)[C@]12C [TDCAS],60.1 ± 5.5%
5,C[C@H](CCC(=O)NCC(=O)O)[C@H]1CC[C@H]2[C@@H]3[C@@H](O)C[C@@H]4C[C@H](O)CC[C@]4(C)[C@H]3CC[C@]12C [GUDCA],35.3 ± 6.8%
6,C[C@H](CCC(=O)NCCS(=O)(=O)O)[C@H]1CC[C@H]2[C@@H]3[C@@H](O)C[C@@H]4C[C@H](OS(=O)(=O)O)CC[C@]4(C)[C@H]3CC[C@]12C [TUDCAS],31.4 ± 3.2%

# Same assay, conditions: activation efficacy, m39-20 cells, no zinc ions
row,Structure (SMILES),Only bile acid Efficacy
1,C[C@H](CCC(=O)O)[C@H]1CC[C@H]2[C@@H]3[C@@H](O)C[C@@H]4C[C@H](OS(=O)(=O)O)CC[C@]4(C)[C@H]3CC[C@]12C [UDCAS],0%
2,C[C@H](CCC(=O)NCC(=O)O)[C@H]1CC[C@H]2[C@@H]3[C@H](O)C[C@@H]4C[C@H](O)CC[C@]4(C)[C@H]3CC[C@]12C [GCDCA],16.5 ± 2.4%
3,"C[C@H](CCC(=O)O)[C@H]1CC[C@H]2[C@@H]3CC[C@@H]4C[C@H](O)CC[C@]4(C)[C@H]3CC[C@]12C [LCA, Lithocholic acid]",0%
4,C[C@H](CCC(=O)NCCS(=O)(=O)O)[C@H]1CC[C@H]2[C@@H]3CC[C@@H]4C[C@H](OS(=O)(=O)O)CC[C@]4(C)[C@H]3C[C@H](O)[C@]12C [TDCAS],0%
5,C[C@H](CCC(=O)NCC(=O)O)[C@H]1CC[C@H]2[C@@H]3[C@@H](O)C[C@@H]4C[C@H](O)CC[C@]4(C)[C@H]3CC[C@]12C [GUDCA],0%
6,C[C@H](CCC(=O)NCCS(=O)(=O)O)[C@H]1CC[C@H]2[C@@H]3[C@@H](O)C[C@@H]4C[C@H](OS(=O)(=O)O)CC[C@]4(C)[C@H]3CC[C@]12C [TUDCAS],0%

# Same assay, conditions: m39-20 cells, Table 1, FIG. 2
row,Structure (SMILES),change of activation efficacy after the addition of zinc ions
1,C[C@H](CCC(=O)O)[C@H]1CC[C@H]2[C@@H]3[C@@H](O)C[C@@H]4C[C@H](OS(=O)(=O)O)CC[C@]4(C)[C@H]3CC[C@]12C [UDCAS],obviously improved
2,C[C@H](CCC(=O)NCC(=O)O)[C@H]1CC[C@H]2[C@@H]3[C@H](O)C[C@@H]4C[C@H](O)CC[C@]4(C)[C@H]3CC[C@]12C [GCDCA],obviously improved
3,C[C@H](CCC(=O)NCCS(=O)(=O)O)[C@H]1CC[C@H]2[C@@H]3CC[C@@H]4C[C@H](OS(=O)(=O)O)CC[C@]4(C)[C@H]3C[C@H](O)[C@]12C [TDCAS],obviously improved
4,C[C@H](CCC(=O)NCC(=O)O)[C@H]1CC[C@H]2[C@@H]3[C@@H](O)C[C@@H]4C[C@H](O)CC[C@]4(C)[C@H]3CC[C@]12C [GUDCA],obviously improved
5,C[C@H](CCC(=O)NCCS(=O)(=O)O)[C@H]1CC[C@H]2[C@@H]3[C@@H](O)C[C@@H]4C[C@H](OS(=O)(=O)O)CC[C@]4(C)[C@H]3CC[C@]12C [TUDCAS],obviously improved

# Same assay, conditions: m39-20 cells, no zinc ions; read-out: EC50 Only agonist
row,Structure (SMILES),EC50
1,"CNc1nc(NCc2ccc(NS(C)(=O)=O)cc2Cl)cc(-c2ccccn2)n1 [TG-G 1008, reference compound]",39 µM
2,"CCCCCCCCC=CCCCCCCCC(=O)OCC(CO)OC(=O)CCCCCCCC=CCCCCCCCC (centres unmarked) [TM-N 1324, reference compound]",42.9 µM

# Same assay, conditions: m39-20 cells, no zinc ions; read-out: Only bile acid EC50
row,Structure (SMILES),EC50
1,C[C@H](CCC(=O)O)[C@H]1CC[C@H]2[C@@H]3[C@@H](O)C[C@@H]4C[C@H](OS(=O)(=O)O)CC[C@]4(C)[C@H]3CC[C@]12C [UDCAS],> 200 µM
2,C[C@H](CCC(=O)NCC(=O)O)[C@H]1CC[C@H]2[C@@H]3[C@H](O)C[C@@H]4C[C@H](O)CC[C@]4(C)[C@H]3CC[C@]12C [GCDCA],> 200 µM
3,"C[C@H](CCC(=O)O)[C@H]1CC[C@H]2[C@@H]3CC[C@@H]4C[C@H](O)CC[C@]4(C)[C@H]3CC[C@]12C [LCA, Lithocholic acid]",> 200 µM
4,C[C@H](CCC(=O)NCCS(=O)(=O)O)[C@H]1CC[C@H]2[C@@H]3CC[C@@H]4C[C@H](OS(=O)(=O)O)CC[C@]4(C)[C@H]3C[C@H](O)[C@]12C [TDCAS],> 200 µM
5,C[C@H](CCC(=O)NCC(=O)O)[C@H]1CC[C@H]2[C@@H]3[C@@H](O)C[C@@H]4C[C@H](O)CC[C@]4(C)[C@H]3CC[C@]12C [GUDCA],> 200 µM
6,C[C@H](CCC(=O)NCCS(=O)(=O)O)[C@H]1CC[C@H]2[C@@H]3[C@@H](O)C[C@@H]4C[C@H](OS(=O)(=O)O)CC[C@]4(C)[C@H]3CC[C@]12C [TUDCAS],> 200 µM

# Same assay, conditions: read-out: EC50 Agonist + 4 μM zinc ions; m39-20 cells, 4 μM zinc ions
row,Structure (SMILES),EC50
1,"CCCCCCCCC=CCCCCCCCC(=O)OCC(CO)OC(=O)CCCCCCCC=CCCCCCCCC (centres unmarked) [TM-N 1324, reference compound]",3.5 µM

# Reference: patent US12569502B2, “Use of bile acids and derivatives thereof in preparation of GPR39 agonist” (PEKING UNIVERSITY, priority 2019, dated 2026)
